Reference: PMC7828111, “In Search for Multi-Target Ligands as Potential Agents for Diabetes Mellitus and Its Complications—A Structure-Activity Relationship Study on Inhibitors of Aldose Reductase and Protein Tyrosine Phosphatase 1B” (Molecules, 2021)
Where two headings read alike, the source gives them in different places.

Tests used:
[1] = molecular target: T1, human recombinant PTP1B (Homo sapiens, UniProt P18031); design: method as in PMID 30342956; settings: reversible inhibitors; cited from earlier work
T1 sequence (P18031 1-435): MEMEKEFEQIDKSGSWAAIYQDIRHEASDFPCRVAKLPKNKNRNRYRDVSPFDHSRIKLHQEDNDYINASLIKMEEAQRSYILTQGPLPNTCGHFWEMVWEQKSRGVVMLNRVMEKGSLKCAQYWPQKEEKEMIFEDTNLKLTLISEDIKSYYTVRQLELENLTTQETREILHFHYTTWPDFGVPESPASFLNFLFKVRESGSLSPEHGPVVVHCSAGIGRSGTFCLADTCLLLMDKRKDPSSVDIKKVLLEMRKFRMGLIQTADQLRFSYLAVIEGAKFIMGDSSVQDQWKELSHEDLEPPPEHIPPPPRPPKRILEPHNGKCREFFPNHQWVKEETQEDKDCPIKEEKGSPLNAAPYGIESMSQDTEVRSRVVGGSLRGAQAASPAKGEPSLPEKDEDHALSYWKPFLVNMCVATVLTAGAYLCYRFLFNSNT

[2] = molecular target: T2, human recombinant AR (Homo sapiens, UniProt P15121); design: method as in PMID 30342956; settings: reversible inhibitors; cited from earlier work
T2 construct: made in house; host or cells: E. coli BL21(DE3)pLysS

[3] = molecular target: T2, human recombinant AR; test: Kinetic analysis of AR inhibition (Lineweaver-Burk and secondary plots); type: biochemical; settings: for AR Ki relative to K′i: Ki higher than K′i; for AR K′i (apparent dissociation constant, EIS complex) / Mechanism of AR inhibition / Ki: L-idose as substrate; for Ki: read-out: AR Ki (apparent dissociation constant)
Description: The kinetic analysis of compounds 4a, 4e and 4f was performed by measuring reaction rates with different L-idose concentrations s (S) in the absence and in the presence of different inhibitors concentrations. Data were analyzed by Linewever-Burk plots.

[4] = molecular target: T2, human recombinant AR; test: Reversibility of AR inhibition (dialysis); type: biochemical; settings: for AR enzyme activity recovered after removal of the inhibitor upon extensive dialysis: 5 μM compound before dialysis; for AR enzyme activity measured in the presence of compound: 5 μM compound, 2 mM L-idose, before dialysis
Description: In order to evaluate the reversibility of the inhibitory action, 8 mU of purified AR were assayed in the presence of 5 μM of compounds 4a, 4e and 4f. In these conditions less than 15% of the enzyme activity was measured in the presence of 2 mM L-idose as substrate. The mixture was then extensively dialysed on Amicon ultrafiltration membrane (cut off 10 KDa) against 10 mM sodium phosphate buffer, pH 7.0. After dialysis, the enzyme activity was again measured as above and compared to that of a mixture in the absence of inhibitor and treated in the same conditions.

[5] = molecular target: T2, human recombinant AR; test: Inhibition of human recombinant AR, L-idose as substrate (NADPH oxidation at 340 nm); type: biochemical; settings: human recombinant AR, 2 mM L-idose as substrate; mean ± S.E.M
Description: The human recombinant AR was expressed in BL21(DE3)pLysS E. coli cells and purified to electrophoretic homogeneity as previously described. The purified enzyme (specific activity 5.0 U/mg) was stored at −80 °C in 10 mM sodium phosphate buffer pH 7.0 containing 2 mM dithiothreitol and 30% (w/v) glycerol. AR activity was determined at 37 °C as previously described evaluating the decrease in absorbance at 340 nm linked to NADPH oxidation. […] One unit of enzyme activity is the amount that catalyzes the conversion of 1 μmol of substrate/min in the above assay conditions.
All compounds tested as aldose reductase inhibitors were dissolved in DMSO and added to the assay mixture containing 8 mU of purified AR. The reaction was started by addition of the substrate. The DMSO concentration in all the assays was kept constant at 0.5% (v/v) in order to avoid effects on AR activity.
The IC50 values were determined by nonlinear regression analysis using Prism GraphPad 6.0 fitting experimental data to the following equation:(1) vi/v0= Max−Min/1+( I/IC50)^slope +Min
In the equation, vi/v0, represents the ratio between the activity measured in the presence of the inhibitor and the activity measured in the absence of inhibitor; Max and Min represent the expected maximal and minimal value of the activity and were fixed at 1 and zero, respectively. Slope, which describes the steepness of curve in the transition region, was fixed at −1. For each compound, at least five different concentrations of inhibitor in the triplicate assay were analyzed.

[6] = molecular target: T1, human recombinant PTP1B; test: Reversibility assay (dilution test) with PTP1B; type: biochemical; settings: saturating inhibitor, 60 min 37 °C, diluted 400 folds
Description: An aliquot of the enzyme was incubated for 60 min at 37 °C in the presence of saturating amount of PTP1B inhibitor. After this time, an aliquot of the enzyme was withdrawn and diluted 400 folds in the assay buffer containing 2.5 mM of pNPP. After 15 min, the reaction was stopped by adding 1 mL of KOH 0.2 M. The amount of pNP released was calculating measuring the absorbance at 400 nm of solutions using a spectrophotometer. Data obtained were normalized respect to control tests, which was carried out diluting the enzyme with DMSO, the solvent used to dissolve all compounds. Data reported in the figure represent the mean value +/− S.E.M. (n = 3).

[7] = molecular target: T1, human recombinant PTP1B; test: Inhibition of human recombinant PTP1B, p-nitrophenyl phosphate as substrate; type: biochemical; settings: human recombinant PTP1B, pNPP as substrate; mean ± S.E.M
Description: PTP1B activity was determined as follow. […] After an appropriate interval time, the reaction was stopped diluting assay solution with 2 mL of KOH 0.1 M. The amount of p-nitrophenol released was determined measuring the absorbance of the solution at 400 nm using a spectrophotometer and a 1-cm optical pathlength (εmM of p-nitrophenol is 18). The IC50 value was determined measuring the pNPP hydrolysis rate in the presence of increasing inhibitor concentration. For each inhibitor, 15–16 different concentrations were used. All tests were carried out in triplicate and data obtained were normalized respect to control sample.

[8] = molecular target: T1, human recombinant PTP1B; test: Kinetic analysis of PTP1B inhibition (Lineweaver-Burk plot); type: biochemical; settings: pNPP as substrate; for Ki: read-out: PTP1B Ki (apparent dissociation constant)
Description: Kinetic analyses were carried out to dissect action mechanism of compound 4e and 4f. Briefly, the main kinetic parameters, Km and Vmax, were calculated measuring the initial hydrolysis rate of PTP1B in the presence of increasing pNPP concentration (seven different concentrations in the 0.5–25 mM range). All assays were carried out in duplicate. Data obtained were fitted using the Michaelis-Menten equation. To evaluate the action mechanism of inhibitors, we studied the dependence of Km and Vmax from inhibitors concentration, using three different inhibitor concentrations, at least. Data obtained were then analysed by double reciprocal plot (Lineweaver-Burk plot).

Row | Structure (SMILES) | Mechanism of PTP1B inhibition [1] | Mechanism of AR inhibition [2] | AR Ki relative to K′i [3] | AR K′i (apparent dissociation constant, EIS complex) [3] [µM] | Mechanism of AR inhibition [3] | Ki [3] [µM] | AR enzyme activity recovered after removal of the inhibitor upon extensive dialysis [4] | AR enzyme activity measured in the presence of compound [4] | IC50 [5] [nM] | Reversibility of PTP1B inhibition [6] | IC50 [7] [µM] | Mechanism of PTP1B inhibition [8] | PTP1B K′i (apparent dissociation constant, EIS complex) [8] [µM] | Ki [8] [µM] | melting point [°C]
1 | O=C(O)CN1C(=O)/C(=C/c2cccc(OCCc3ccccc3)c2)SC1=S [2e, (4-oxo-5-{[3-(2-phenylethoxy)pheny]lmethylidene}-2-thioxothiazolidin-3-yl)acetic acid] | non-competitive | uncompetitive | – | – | – | – | – | – | – | – | – | – | – | – | –
2 | O=C(O)CCN1C(=O)/C(=C/c2cccc(Oc3ccccc3)c2)SC1=S [4a, 3-{(5Z)[4-Oxo-5-(3-phenoxyphenyl)methylidene-2-thioxothiazolidin-3-yl]}propanoic acid] | – | – | approximately 4 fold | 1.4 ± 0.022 | mixed-type inhibition | 5 ± 0.57 | more than 90% | less than 15% | 2200 ± 100 | reversible inhibitors | 34.1 ± 0.5 | mixed-type non-competitive inhibitors | 68.9 ± 1.5 | 10.6 ± 1.7 | –
3 | O=C(O)CN1C(=O)S/C(=C\c2cccc(OCCc3ccccc3)c2)C1=O [1e] | non-competitive | uncompetitive | – | – | – | – | – | – | – | – | – | – | – | – | –
4 | O=C(O)CCN1C(=O)/C(=C/c2cccc(OCCc3ccccc3)c2)SC1=S [4e, 3-[(5Z)-4-Oxo-{5-[3-(2-phenylethoxy)phenyl]methylidene}-2-thioxothiazolidin-3-yl]propanoic acid] | – | – | at least ten-fold higher | 0.66 ± 0.30 | uncompetitive inhibitors | > 8 | more than 90% | less than 15% | 2300 ± 100 | reversible inhibitors | 55.5 ± 0.8 | competitive inhibitor | >12 | 2.2 ± 0.3 | 136 to 138
